Experimental findings from PMC11474193, “A cub and sushi domain-containing protein with esterase-like activity confers insecticide resistance in the Indian malaria vector Anopheles stephensi” (The Journal of Biological Chemistry, 2024) are described below.

Assay [1] has as its system T1, CUB and Sushi Domain-containing Insecticide Resistance (CSDIR) protein (XP_035915664.1).
T1 construct: CSDIR^913-1190 (C-terminal CUB and Sushi domains, recombinant in E. coli)
Nature of the assay: SPR, steady-state fit; degradation by the protein also shown by UPLC. Type of assay: binding, Anopheles stephensi. A general note: SPR reads the build-up and loss of mass on a sensor chip optically.

For assay [2] the test system is unchanged. As to the kind of experiment: SPR, immobilized CSDIR913-1190, steady-state fit. Type of assay: binding, Anopheles stephensi.

In turn, `CC1(C)[C@H](C(=O)O[C@H](C#N)c2cccc(Oc3ccccc3)c2)[C@@H]1C=C(Br)Br` [deltamethrin] displayed a Kd in assay [1] of 46.7 µM. Take `CCOC(=O)CC(SP(=S)(OC)OC)C(=O)OCC` (centres unmarked) [malathion]: in assay [2], binding was put at a Kd of 6.43 µM.

The Kd is the free concentration of one partner at which half of the binding sites on the other are occupied at equilibrium, for simple one-to-one binding. Low values mean a tighter complex, high ones a looser complex.
